Measurements as given in patent US10351501B2, “Gem difluorocompounds as depigmenting or lightening agents” (TFCHEM, priority 2015, dated 2019).
pIC50: −log10 of the molar value.

How the values were obtained:
[1] = Antioxidant activity by the spectrophotometric method of the free radical DPPH•; conditions: molar ratio antioxidant/DPPH•; absorbance at T = 30 min
Description: The aim of the study was to evaluate the antioxidant activity of compound 11 by the spectrophotometric method of the free radical DPPH• (2,2-diphenyl-1-picrylhydrazyl). Indeed, antioxidants react with DPPH^• (purple), a stable free radical which is reduced to DPPH-H (yellow), and in consequence, the absorbance is decreased from the DPPH^• radical to the DPPH-H form. The degree of discoloration indicates the scavenging potential of the antioxidant compounds in terms of hydrogen donating ability (Popovici et al. Revue de génie industriel 2009, 4, 25-39).
The tested compounds were: Trolox ((±)-6-hydroxy-2,5,7,8-tetramethylchromane-2-carboxylic acid, Sigma Aldrich), as reference, and compound 11.
A stock solution of DPPH• was prepared at 200 μmol/mL in methanol and diluted in methanol in order to have a final concentration of around 150 μmol/mL to obtain a DO close to 0.9 in a plate of 96 wells. The antioxidant stock solutions were prepared at 1 mg/mL in methanol and the tested solutions were prepared from these antioxidant stock solutions as described in Table 7 below.
50 μL of each solution of antioxidant was added to the wells. Then, 200 μL of DPPH^• was added to each well.
The blank was prepared with only 250 μl of methanol and the negative control was prepared with 200 μL DPPH• and 50 μL of methanol.
The analysis was started immediately after the addition of DPPH• lasting for 2 hours (readings every 20 seconds). The absorbance was read at 515 nm. Each experiment was performed three times and had shown that the absorbance decreases while the concentration of antioxidant increased.
The activity of DPPH• is a percentage calculated as the ratio of A/An×100%.
The EC50 is expressed as a molar ratio of antioxidant (compound 11)/DPPH• (Popovici et al. Revue de génie industriel 2009, 4, 25-39). The EC50 was determined from the graph representing the percentage of DPPH• in function of the above mentioned molar ratio (moles of compound 11/moles of DPPH•).
The antioxidant activity of compound 11 was compared to that of Trolox used as a reference (considered as 100%).

human tyrosinase = experiment: HumanLike Tyrosinase Assay kit (Feldan), L-Tyrosine to dopachrome, OD at 490 nm; type: biochemical; conditions: for OD at 490 nm: 1.12 mM
Procedure: The efficacy of compound 16 was evaluated by the inhibition of human tyrosinase in tubo and compared to the compound 11.
The assay was performed with a ready-to-use kit from Feldan Inc (Canada): the HumanLike Tyrosinase Assay kit (ref A021-a-001Kit).
The protocol was performed as described in the instructions for use of the manufacturer. Briefly, this kit is intended for the determination of human tyrosinase activity in presence of different inhibitors. The kit measures the conversion of L-Tyrosine into a dopachrome complex absorbing at 490 nm. The time course of the assay is 20 minutes, after which the results are analyzed and compared.
The compounds 11 and 16 have been tested at a final concentration of 1.12 mM.
The measured absorbances at 490 nm are reported in the table 5 and plotted in function of time in the FIG. 1.
Moreover for each compound the efficacy as tyrosinase inhibitor was calculated using the following formula: […]

[2] = In vitro stability: hydroquinone released in various chemical conditions (HPLC-UV/DAD); type: physicochemical
Procedure: The stability of compound 11 was evaluated by the released of hydroquinone, which is a potentially toxic compound, in different chemical conditions (extreme conditions, simulating the application of these molecules on the skin) and it was compared to the deoxyarbutin.
This study involved different tests as degradation test and chemical stability (various chemical solutions, pH and temperatures).
Analytical Method (HPLC-UV/DAD Method)
Column Atlantis dC18 150 mm*4.6 mm*3 μm Waters, 30° C. Injection 50 μl, 25° C. λ: 220 nm, 265 nm, 285 nm. A-Acetonitrile B-Water; 0.8 ml/min; elution gradient: […]
This analytical method gave linear response for compound 11, Deoxyarbutin and Hydroquinone from 25 ng/mL to 1000 ng/mL. Dilution of samples had to be taken into account for each stability study to calculate the LLOQ of each compound.
The tested compounds are incubated in different solutions, at different times (see table 1). Then the analytical method was used to quantify remaining compounds and potential hydroquinone released (as possible degradation of compounds).
Hydroquinone (HQ) apparition is expressed as a percentage of initial compound 11 or Deoxyarbutin. The calculation was done in molar units and the limit of quantification fluctuates with the initial concentration.

[3] = biological target: T1, human recombinant tyrosinase (Homo sapiens, UniProt P14679); experiment: Inhibition of human tyrosinase in tubo (L-DOPA substrate, OD at 477 nm), IC50; type: biochemical; conditions: Tyrosinase Concentration 300 U/mL
T1 sequence (P14679 19-529): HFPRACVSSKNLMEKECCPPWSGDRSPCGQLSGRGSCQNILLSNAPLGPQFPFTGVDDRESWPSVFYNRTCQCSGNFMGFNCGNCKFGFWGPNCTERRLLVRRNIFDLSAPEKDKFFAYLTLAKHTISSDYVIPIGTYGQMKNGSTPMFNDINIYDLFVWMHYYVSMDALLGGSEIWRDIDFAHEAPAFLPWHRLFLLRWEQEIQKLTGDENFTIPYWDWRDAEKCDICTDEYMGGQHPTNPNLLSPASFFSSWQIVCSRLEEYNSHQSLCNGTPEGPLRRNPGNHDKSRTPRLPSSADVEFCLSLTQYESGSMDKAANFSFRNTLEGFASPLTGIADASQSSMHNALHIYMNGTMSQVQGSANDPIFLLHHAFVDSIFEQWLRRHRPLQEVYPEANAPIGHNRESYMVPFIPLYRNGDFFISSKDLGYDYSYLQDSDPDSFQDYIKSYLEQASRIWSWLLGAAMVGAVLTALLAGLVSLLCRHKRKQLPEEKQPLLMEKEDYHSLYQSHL
Procedure: Substrate solution: L-DOPA (1 mg/mL) Solution B (L-DOPA 20 mg/Purified water up to 20 mL)
Preparation of Test Solutions (for IC50 Test—Examples for Deoxyarbutin)
Inhibitors solutions deoxyarbutin (1 mg/mL): Deoxyarbutin 20 mg in purified water up to 20 mL
This assay used a 96-well plate. Test solutions and controls were made several times.
The results were calculated from the OD measured at time point 20 min.
The determination of half maximal inhibitory concentration (IC50) was performed using the following formula.

[4] = In vitro human skin absorption, Franz diffusion cell: quantification in the receptor fluid (flux); type: in vitro ADME; conditions: 200 μl at 2 mg/ml in water on human skin explant; receptor fluid T0 h to T24 h
Description: The aim of this study was to evaluate the absorption of compound 11 applied to excised human skin.
In vitro method using a Franz diffusion cell allows measuring the diffusion of chemicals into and across skin.
The tested compound is applied to the surface of a human skin explant separating the two chambers of a Franz diffusion cell. The compound remains on the skin for a specified time under specified conditions. The receptor fluid is sampled at time points throughout the experiment and analyzed for the tested compound. The skin may also be fractioned for separate analysis in epidermis or dermis layers.
The transcutaneous absorption was measured on human skin collected from the abdominoplasty of a single donor. At reception, the skin was defatted and cut in several fragments in order to perform Franz experiment. […]
The tested compounds were quantified, at T0 h and T24 h in the receptor solution bathing the inner surface of the skin (determination of flux), or at T24 h in the fractionated skin extracts (epidermis or dermis). […]
Sampling: 500 μL from the receptor fluid were removed at T0 h (replaced by Ringer solution) and at T24 h. These samples were analyzed by LC-MS/MS method for quantification of compound 11 and deoxyarbutin (results not shown). The quantity measured allowed to calculate a flux and to compare the absorption profile across the skin of compound 11 and deoxyarbutin.

SMILES: Cc1c(C)c2c(c(C)c1O)CCC(C)(C(=O)O)O2 (racemic) [Trolox, (±)-6-hydroxy-2,5,7,8-tetramethylchromane-2-carboxylic acid, reference compound]
- EC50 (Ratio antioxidant/DPPH•) Mean [1]: 0.240

SMILES: Oc1ccc(OC2CC(O)CCC2(F)F)cc1 (stereo not shown) [Compound 16]
- OD at 490 nm (human tyrosinase; time 0 min): 0.0000
- OD at 490 nm (human tyrosinase; time 1 min): 0.0105
- OD at 490 nm (human tyrosinase; time 2 min): 0.0185
- OD at 490 nm (human tyrosinase; time 3 min): 0.0285
- OD at 490 nm (human tyrosinase; time 4 min): 0.0385
- OD at 490 nm (human tyrosinase; time 5 min): 0.0505
- OD at 490 nm (human tyrosinase; time 6 min): 0.0605
- OD at 490 nm (human tyrosinase; time 7 min): 0.0720
- OD at 490 nm (human tyrosinase; time 8 min): 0.0815
- OD at 490 nm (human tyrosinase; time 9 min): 0.0925
- OD at 490 nm (human tyrosinase; time 10 min): 0.1025
- OD at 490 nm (human tyrosinase; time 11 min): 0.1125
- OD at 490 nm (human tyrosinase; time 12 min): 0.1225
- OD at 490 nm (human tyrosinase; time 13 min): 0.1330
- OD at 490 nm (human tyrosinase; time 14 min): 0.1435
- OD at 490 nm (human tyrosinase; time 15 min): 0.1545
- OD at 490 nm (human tyrosinase; time 16 min): 0.1650
- OD at 490 nm (human tyrosinase; time 17 min): 0.1765
- OD at 490 nm (human tyrosinase; time 18 min): 0.1885
- OD at 490 nm (human tyrosinase; time 19 min): 0.2000
- OD at 490 nm (human tyrosinase; time 20 min): 0.2115
- Inhibitor efficacy (%) (human tyrosinase; Compound at 1.12 mM, T = 20 min): 13.7%

SMILES: Oc1ccc(OC2CCCCO2)cc1 (stereo not shown) [Deoxyarbutin, reference compound]
- % Hydroquinone released ([2]; Ringer's solution pH 5.5 at 70° C., 24 H): 11.83%
- % Hydroquinone released ([2]; Ringer's solution pH 8.5 at 70° C., 24 H): 88.76%
- % Hydroquinone released ([2]; Synthetic perspiration at RT, 48 H): 128.61%
- % Hydroquinone released ([2]; Water at room temperature, 14 Days): 4.20%
- Calculated IC50 Mean ([3]; mean of 4 tests): 53 µg/mL
- pIC50 ([3]; read-out: IC50): 3.57
- Calculated IC50 Test #1 ([3]; time 20 min): 26 µg/mL
- Calculated IC50 Test #2 ([3]; time 20 min): 45 µg/mL
- Calculated IC50 Test #3 ([3]; time 20 min): 80 µg/mL
- Calculated IC50 Test #4 ([3]; time 20 min): 60 µg/mL
- Flux, mean (n = 3) [4]: 3.98 μg/h/cm^2
